We go through three compounds from patent publication US8367735B2, “Pharmaceutical compositions” (Crawford Healthcare Holdings Limited, priority 2006, dated 2013).

The test system of series [1] is human endothelial cells. Description: LD50 in human endothelial cells. The class given is cell-based.
The subject of series [2] is Human endothelial cells (HUVEC). Description: HUVEC DNA synthesis (BrdU incorporation). To be noted: 48 hours, read-out: IC50 endothelial cell proliferation (BrdU DNA synthesis). The series is classed as cell-based. On the procedure:
(§1) Cell Lines and Treatments. Human keratinocytes (HaCaT) were grown routinely in DMEM supplemented with 10% FBS and 2 mM L-glutamine at 37° C. in a 5% CO2 humidified atmosphere. Human umbilical vein endothelial cells (HUVEC), obtained from Clonetics (San Diego, Calif., USA), were cultured in EGM medium (Clonetics, San Diego, Calif., USA) supplemented with 2% FBS, […], […] hydrocortisone, […] gentamicin, 3 mg/ml BBE (bovine brain extract) at 37° C. in a 5% CO2 humidified atmosphere.
Compounds. CTM-208 was dissolved in absolute ethanol or DMSO (0.1 M stock solution), stored at −20° C., and diluted in the culture medium immediately before use. […]
DNA synthesis. […] DNA synthesis was evaluated by incorporation of 5-bromo-2-deoxy-uridine (BrdU) into cellular DNA 48 hours after the addition of the compounds. The amount of BrdU integrated into DNA was evaluated by using a monoclonal antibody against BrdU (cell proliferation ELISA colorimetric assay, Roche). Absorbance (l: 405 nm) was measured using a Victor microtiter plate reader (Wallac), and data were analyzed using the Allfit program.
Effect of CTM-208 on human endothelial cell proliferation. […] At 48 hours after the addition of the compounds, DNA synthesis was evaluated by incorporation of 5-bromo-2-deoxy-uridine (BrdU) into cellular DNA. […]

For series [3], the system named is human Burkitt lymphoma HS-Sultan cells. As to the kind of experiment: Annexin V staining apoptosis, HS-Sultan cells. The series is classed as cell-based. How it is done: (§2) Cell Culture and Treatments. Human breast cancer MDA-MB-231, human melanoma SK-MEL-28, and human Burkitt lymphoma HS-Sultan cell lines, obtained from ATCC (Manassas, Va.), were grown at 37° C. in 5% CO2 and 95% humidified air in cell culture medium containing 10% fetal calf serum, 2 mM glutamine and antibiotics ([…] penicillin and 0.1 mg/ml streptomycin) (Life Technologies, Inc.). Each compound to be assayed was dissolved in absolute ethanol and diluted in the culture medium immediately before use. Control cells received the same amount of ethanol diluent. Cells were incubated with the assay compound or control diluent for 8 hours, unless indicated otherwise. Cell viability was determined by vital-dye exclusion assay (Trypan blue, 0.1%).
Flow Cytometry. For Annexin V staining, cells were washed once with PBS and resuspended in staining buffer (10 mM HEPES pH 7.4, 140 mM NaCl, 2.5 mM CaCl) with […] of AnnexinV-PI (AnnexinV-FITC, Becton-Dickinson). After 15 minutes of incubation in the dark, cells were directly analyzed in a FACScan (Becton-Dickinson). Cells were evaluated with CellQuest Program (Becton-Dickinson). Data were plotted using a histogram algorithm, in which the intensities of Annexin V-positive cells were represented as percent of untreated control. Exemplary data obtained from human Burkitt lymphoma HS-Sultan cells and human melanoma SK-MEL-28 cells (24 hour incubation for SK-MEL-28 cells) are provided in FIGS. 1 and 2, respectively.
Electrophoretic Mobility Shift Assay (EMSA). […] Complexes were analyzed by nondenaturing 4% polyacrylamide gel electrophoresis. […] Quantitative evaluation of NF-κB-κB complex formation was determined by Typhoon-8600 Imager (Molecular Dynamics), using ImageQuant software (MDP analysis). […]

Series [4] relates to HSF. As to the kind of experiment: EMSA of HSF induction in human endothelial cells. The class given is cell-based.
For series [5], the system named is Human keratinocytes (HaCaT). As to the kind of experiment: HaCaT cell proliferation assay (viable cell count). Particulars: 48 hours after treatment. The class given is cell-based. How it is done: as §1
Compounds. CTM-208 was dissolved in absolute ethanol or DMSO (0.1 M stock solution), stored at −20° C., and diluted in the culture medium immediately before use. Control cells received the same amount of DMSO diluent that had no effect on cell proliferation at the concentrations tested. Methotrexate was dissolved in DMSO. […]
Cell Proliferation Assay. […] At 48 hours after the addition of the compounds, cell proliferation was determined by counting the number of viable cells in a hemocytometer. Cell viability was determined by the Trypan blue vital dye exclusion technique. IC50 values on the increase in the number of cells over the number of seeded cells were calculated at 48 hours after treatment.
Effect of CTM-208 on human keratinocyte proliferation. […] At 48 hours after the addition of the compounds, cell proliferation was determined by counting the number of viable cells in a hemocytometer. […]

Series [6] deals with human melanoma SK-MEL-28 cells. Description: Annexin V staining apoptosis, SK-MEL-28 cells. The series is classed as cell-based. To be noted: 24 hour incubation, in comparison to Cisplatin, Etoposide and Vinblastine, FIG. 2. On the procedure:
as §2
Flow Cytometry. For Annexin V staining, cells were washed once with PBS and resuspended in staining buffer (10 mM HEPES pH 7.4, 140 mM NaCl, 2.5 mM CaCl) with […] of AnnexinV-PI (AnnexinV-FITC, Becton-Dickinson). After 15 minutes of incubation in the dark, cells were directly analyzed in a FACScan (Becton-Dickinson). Cells were evaluated with CellQuest Program (Becton-Dickinson). Data were plotted using a histogram algorithm, in which the intensities of Annexin V-positive cells were represented as percent of untreated control. […]

Series [7] deals with HSF. As to the kind of experiment: EMSA of HSF induction in human keratinocytes. The series is classed as cell-based.
The subject of series [8] is NF-κB. Description: EMSA of NF-κB DNA-binding activity in HS-Sultan cells. The class given is cell-based. Particulars: Homo sapiens, FIG. 6. On the procedure: as §2
Electrophoretic Mobility Shift Assay (EMSA). For nuclear extract preparation, cells (2×10^6 cells/sample) were lysed in hypotonic lysis buffer (10 mM NaCl, 3 mM MgCl2, 10 mM Tris-HCl pH 7.8, 0.5% NP40, 1 mM DTT) and then in high-salt extraction buffer (50 mM Tris-HCl, 400 mM NaCl, 1 mM EDTA, 1 mM EGTA, 1% Triton, 0.5% NP-40, 10% glycerol, 1 mM DTT, 1 mM PMSF, 0.5 μg/ml leupeptin, 0.7 μg/ml pepstatin, 0.2% aprotinin). […] Complexes were analyzed by nondenaturing 4% polyacrylamide gel electrophoresis. […] Quantitative evaluation of NF-κB-κB complex formation was determined by Typhoon-8600 Imager (Molecular Dynamics), using ImageQuant software (MDP analysis). […]

The subject of series [9] is human breast cancer MDA-MB-231 cells. Description: DNA fragmentation (Cell-Death-Detection ELISA), MDA-MB-231 cells. Particulars: 5 μM, 48 hour incubation, FIG. 3. The series is classed as cell-based. On the procedure: as §2
DNA Fragmentation. Cytoplasmic histone-bound DNA fragments (mono- and oligo-nucleosomes) generated during apoptosis were measured by Cell-Death-Detection ELISA kit (Roche Diagnostics, Mannheim, Germany), according to the manufacturer's instructions. Histone-associated DNA fragments were quantified spectrophotometrically using antibodies against DNA and histones in a colorimetric assay. Enrichment in cytoplasmic nucleosomes was expressed as fold-induction of levels in untreated controls. […] At 5 μM CTM-208, apoptosis was increased more than 35-fold over the untreated control.

The subject of series [10] is NF-κB. Description: EMSA of NF-κB DNA-binding activity in human endothelial cells. The class given is cell-based. To be noted: Endothelial cell. On the procedure:
as §1
Electrophoretic Mobility Shift Assay (EMSA). For nuclear extract preparation, cells (2×10^6 cells/sample) were lysed in hypotonic lysis buffer (10 mM NaCl, 3 mM MgCl2, 10 mM Tris-HCl pH 7.8, 0.5% NP40, 1 mM DTT) and then in high-salt extraction buffer (50 mM Tris-HCl, 400 mM NaCl, 1 mM EDTA, 1 mM EGTA, 1% Triton, 0.5% NP-40, 10% glycerol, 1 mM DTT, 1 mM PMSF, 0.5 μg/ml leupeptin, 0.7 μg/ml pepstatin, 0.2% aprotinin). Equal amounts of protein (6 μg/sample) were incubated with ^32P-labeled κB-DNA probe followed by analysis of DNA-binding activity by EMSA. Binding reactions were performed as described (11). Complexes were analyzed by nondenaturing 4% polyacrylamide gel electrophoresis. […] Quantitative evaluation of NF-κB-κB complex formation was determined by Typhoon-8600 Imager (Molecular Dynamics), using ImageQuant software (MDP analysis). […]

In series [11] the test system is NF-κB. As to the kind of experiment: EMSA of NF-κB DNA-binding activity in human keratinocytes. The series is classed as cell-based. Particulars: Keratinocyte, read-out: NF-κB.
Experimental: Electrophoretic Mobility Shift Assay (EMSA). For nuclear extract preparation, cells (2×10^6 cells/sample) were lysed in hypotonic lysis buffer (10 mM NaCl, 3 mM MgCl2, 10 mM Tris-HCl pH 7.8, 0.5% NP40, 1 mM DTT) and then in high-salt extraction buffer (50 mM Tris-HCl, 400 mM NaCl, 1 mM EDTA, 1 mM EGTA, 1% Triton, 0.5% NP-40, 10% glycerol, 1 mM DTT, 1 mM PMSF, 0.5 μg/ml leupeptin, 0.7 μg/ml pepstatin, 0.2% aprotinin). Equal amounts of protein (6 μg/sample) were incubated with ^32P-labeled κB-DNA probe followed by analysis of DNA-binding activity by EMSA. Binding reactions were performed as described (11). Complexes were analyzed by nondenaturing 4% polyacrylamide gel electrophoresis. Specificity of protein-DNA complexes was verified by immunoreactivity with polyclonal antibodies specific for the NF-κB subunit, p65/RelA. Quantitative evaluation of NF-κB-κB complex formation was determined by Typhoon-8600 Imager (Molecular Dynamics), using ImageQuant software (MDP analysis).
For series [12], the system named is human keratinocytes. As to the kind of experiment: LD50 in human keratinocytes. The series is classed as cell-based. How it is done:
Cell Proliferation Assay. HaCaT cells (2.5×10^4 cells/well) were seeded in 24-well plates. After 24 hours, the medium was removed and the test compounds were added at different concentrations. At 48 hours after the addition of the compounds, cell proliferation was determined by counting the number of viable cells in a hemocytometer. Cell viability was determined by the Trypan blue vital dye exclusion technique. IC50 values on the increase in the number of cells over the number of seeded cells were calculated at 48 hours after treatment.

For series [13], the system named is HSF1. Particulars: cited from earlier work.
Series [14] relates to NF-κB. To be noted: chemical or physiological inducers; cited from earlier work.

pIC50: −log10 of the molar value.

As for `COC(=O)[C@H](CSC1CC(=O)/C(=C/c2ccccc2)CC1O[Si](C)(C)C(C)(C)C)NC(=O)OC(C)(C)C` (stereo partly drawn) [CTM-208, (R)-2-tert-Butoxycarbonylamino-3-[4E-benzylidene-2(tert-butyl-dimethylsilanyloxy)-5-oxo-cyclohexylsulfanyl]-propionic acid methyl ester], the LD50 in series [1] was above 400 µM; in series [12], 400 µM. Further, the pIC50 was 5.80 in series [2]; 5.70 in series [5]; 6.70 in [8]; 5.30 in [10]; 4.72 in [11]. In series [3] (0.5 μM, 8 hour treatment), the apoptosis result is given as “approximately 90%”. The “concentration at which induction of apoptosis starts to be effective” value in series [3] (Annexin V-PI staining, FIG. 7) was found to be 0.1 µM. For the same compound, the “induction of apoptosis (Annexin V-positive cells)” value was “potent inducer of apoptosis” in series [3] (in comparison to 15d-PGJ2, FIG. 1) and “potent inducer of apoptosis” in [6]. Also, the “effective concentration for HSF induction” value in series [4] was below 1 µM. The “concentration for HSF induction” value in series [7] is 1.5 µM. The “apoptosis increase over untreated control (cytoplasmic nucleosome enrichment)” value in [9] was “more than 35 fold”.
For `CN(Cc1cnc2nc(N)nc(N)c2n1)c1ccc(C(=O)N[C@@H](CCC(=O)O)C(=O)O)cc1` [Methotrexate, reference compound], the pIC50 in series [5] was above 7.00. For the same compound, the “concentration for HSF induction” value in series [7] is above 400 µM. The LD50 in series [12] is above 400 µM.
Regarding `O=C1C=CCC1` [cyclopent-2-en-1-one], the “concentration able to activate HSF1 and trigger synthesis of HSP70” value in series [13] was 125 to 500 µM. In series [14], the “concentration able to block NF-κB activation” value was 125 to 500 µM.
